Assays:
WIV1-CoV pseudovirus = conditions: 72 h
[1] = target: T1, 2019-HR1P (derived from the HR1 region of 2019-nCoV) (Severe acute respiratory syndrome coronavirus 2, UniProt P0DTC2); experiment: Circular dichroism spectroscopy of polypeptide mixed with 2019-HR1P; format: binding; conditions: 10 μM, phosphate buffer pH 7.2, 4° C.
SARS-CoV pseudovirus = conditions: 72 h
2019-nCoV pseudovirus = conditions: for IC50: 72 h
[2] = test system: cell-cell fusion mediated by the S protein of 2019-nCoV; format: cell-based
[3] = test system: SARS-CoV-2 live virus (nCoV-SH01 strain); experiment: Inhibition of SARS-CoV-2 live virus on human intestinal cell line CaCO2 (viral RNA in supernatant); format: cell-based; conditions: CaCO2 cells, 48 hours, read-out: half inhibitory concentration, SARS-CoV-2 live virus
[4] = target: T1, 2019-HR1P (derived from the HR1 region of 2019-nCoV); experiment: Native PAGE (N-PAGE) of polypeptide mixed with 2019-HR1P; format: binding; conditions: 30 μM each, 37° C. for 30 minutes
Rs3367-CoV pseudovirus = conditions: 72 h
[5] = test system: SARS-CoV-2 live virus (nCoV-SH01 strain); set-up: species or system transgenic human-ACE2 mice; conditions: in vivo
2019-nCoV live virus = conditions: for IC50: 72 h; for inhibitory activity relative to EK1, 2019-nCoV live virus: fold higher than EK1

Row | Compound | IC50 (WIV1-CoV pseudovirus) [nM] | secondary structure of mixture with 2019-HR1P by circular dichroism [1] | IC50 (SARS-CoV pseudovirus) [nM] | IC50 (2019-nCoV pseudovirus) [nM] | inhibitory effect on cell-cell fusion mediated by the S protein of 2019-nCoV (in words) [2] | IC50 [3] [nM] | complex formation with 2019-HR1P in N-PAGE [4] | IC50 (Rs3367-CoV pseudovirus) [nM] | SARS-CoV-2 viral load in the intestine [5] | SARS-CoV-2 viral load in the lung [5] | IC50 (2019-nCoV live virus) [nM] | inhibitory activity relative to EK1, 2019-nCoV live virus (2019-nCoV live virus) [times] | SARS-CoV-2 viral titer in the intestine [5] | SARS-CoV-2 viral titer in the lung [5] | activity in pseudovirus inhibition experiments (in words) (2019-nCoV pseudovirus)
1 | CC[C@H](C)[C@H](NC(=O)[C@H](C)NC(=O)[C@H](CCC(=O)O)NC(=O)[C@H](CCC(=O)O)NC(=O)[C@H](CC(C)C)NC(=O)[C@H](CCCCN)NC(=O)[C@H](CCCCN)NC(=O)[C@H](CCSC)NC(=O)[C@H](CCC(=O)O)NC(=O)[C@H](Cc1ccc(O)cc1)NC(=O)[C@H](CCC(=O)O)NC(=O)[C@H](CC(C)C)NC(=O)[C@H](CC(=O)O)NC(=O)[C@H](CC(C)C)NC(=O)[C@H](Cc1ccccc1)NC(=O)[C@@H](NC(=O)[C@@H](NC(=O)[C@H](CC(N)=O)NC(=O)[C@@H](NC(=O)[C@H](CCC(N)=O)NC(=O)[C@H](CC(=O)O)NC(=O)[C@H](CC(C)C)NC(=O)[C@@H](N)CO)[C@@H](C)CC)C(C)C)[C@@H](C)O)C(=O)N[C@@H](CCCCN)C(=O)N[C@@H](CCCCN)C(=O)N[C@@H](CC(C)C)C(=O)N[C@@H](CCC(=O)O)C(=O)N[C@@H](CCC(=O)O)C(=O)N[C@@H](CO)C(=O)N[C@@H](Cc1ccc(O)cc1)C(=O)N[C@H](C(=O)N[C@@H](CC(=O)O)C(=O)N[C@@H](CC(C)C)C(=O)N[C@@H](CCCCN)C(=O)N[C@@H](CCC(=O)O)C(=O)N[C@@H](CC(C)C)C(=O)O)[C@@H](C)CC [EK1, reference compound] | 2940 | formed a 6-HB complex | 1890 | 2490 | very good inhibitory effect | 573 | formation of a six-helix bundle complex | 4000 | significantly reduce | significantly reduce | – | – | – | – | –
2 | CC[C@H](C)[C@H](NC(=O)[C@H](C)NC(=O)[C@H](CCC(=O)O)NC(=O)[C@H](CCC(=O)O)NC(=O)[C@H](CC(C)C)NC(=O)[C@H](CCCCN)NC(=O)[C@H](CCCCN)NC(=O)[C@H](CCSC)NC(=O)[C@H](CCC(=O)O)NC(=O)[C@H](Cc1ccc(O)cc1)NC(=O)[C@H](CCC(=O)O)NC(=O)[C@H](CC(C)C)NC(=O)[C@H](CC(=O)O)NC(=O)[C@H](CC(C)C)NC(=O)[C@H](Cc1ccccc1)NC(=O)[C@@H](NC(=O)[C@@H](NC(=O)[C@H](CC(N)=O)NC(=O)[C@@H](NC(=O)[C@H](CCC(N)=O)NC(=O)[C@H](CC(=O)O)NC(=O)[C@H](CC(C)C)NC(=O)[C@@H](N)CO)[C@@H](C)CC)C(C)C)[C@@H](C)O)C(=O)N[C@@H](CCCCN)C(=O)N[C@@H](CCCCN)C(=O)N[C@@H](CC(C)C)C(=O)N[C@@H](CCC(=O)O)C(=O)N[C@@H](CCC(=O)O)C(=O)N[C@@H](CO)C(=O)N[C@@H](Cc1ccc(O)cc1)C(=O)N[C@H](C(=O)N[C@@H](CC(=O)O)C(=O)N[C@@H](CC(C)C)C(=O)N[C@@H](CCCCN)C(=O)N[C@@H](CCC(=O)O)C(=O)N[C@@H](CC(C)C)C(=O)NCC(=O)N[C@@H](CO)C(=O)NCC(=O)N[C@@H](CO)C(=O)NCC(=O)NCCOCCOCCOCCOCCC(=O)N[C@@H](CSCC(=O)O[C@H]1CC[C@@]2(C)C(=CC[C@H]3[C@@H]4CC[C@H]([C@H](C)CCCC(C)C)[C@@]4(C)CC[C@@H]32)C1)C(=O)O)[C@@H](C)CC [EK1-chol] | 40 | – | 10 | 20 | very good inhibitory effect | 5.5 | – | 30 | – | – | 36.5 | 67 | significantly reduce | significantly reduce | –
3 | CCCCCCCCCCCCCCCC(=O)NCCCC[C@H](NC(=O)CCOCCOCCOCCOCCNC(=O)CNC(=O)[C@H](CO)NC(=O)CNC(=O)[C@H](CC(C)C)NC(=O)[C@H](CCC(=O)O)NC(=O)[C@H](CCCCN)NC(=O)[C@H](CC(C)C)NC(=O)[C@H](CC(=O)O)NC(=O)[C@@H](NC(=O)[C@H](Cc1ccc(O)cc1)NC(=O)[C@H](CO)NC(=O)[C@H](CCC(=O)O)NC(=O)[C@H](CCC(=O)O)NC(=O)[C@H](CC(C)C)NC(=O)[C@H](CCCCN)NC(=O)[C@H](CCCCN)NC(=O)[C@@H](NC(=O)[C@H](C)NC(=O)[C@H](CCC(=O)O)NC(=O)[C@H](CCC(=O)O)NC(=O)[C@H](CC(C)C)NC(=O)[C@H](CCCCN)NC(=O)[C@H](CCCCN)NC(=O)[C@H](CCSC)NC(=O)[C@H](CCC(=O)O)NC(=O)[C@H](Cc1ccc(O)cc1)NC(=O)[C@H](CCC(=O)O)NC(=O)[C@H](CC(C)C)NC(=O)[C@H](CC(=O)O)NC(=O)[C@H](CC(C)C)NC(=O)[C@H](Cc1ccccc1)NC(=O)[C@@H](NC(=O)[C@@H](NC(=O)[C@H](CC(N)=O)NC(=O)[C@@H](NC(=O)[C@H](CCC(N)=O)NC(=O)[C@H](CC(=O)O)NC(=O)[C@H](CC(C)C)NC(=O)[C@@H](N)CO)[C@@H](C)CC)C(C)C)[C@@H](C)O)[C@@H](C)CC)[C@@H](C)CC)C(=O)O [EK1-plam] | 100 | – | 170 | 360 | very good inhibitory effect | – | – | 130 | – | – | 436 | 5 | – | – | –
4 | ANQFNSAIGKIQDSLSSTASALGKLQDVVNQNAQALNTLVKQ (SEQ ID NO. 3) [2019-HR1P, reference compound] | – | – | – | – | no activity | – | – | – | – | – | – | – | – | – | no activity
